The text below walks through data of PMC12040169 (PLOS Biology, 2025).

Molecules are shown by their SMILES.

The data set is described as follows: in vitro. The note with it: human, hela cells, % viability.
The term viability denotes a read-out of living cells in per cent, often relative to untreated cells. As to `Cc1ccc(NC(=O)C2CCCN2S(=O)(=O)c2ccc(F)cc2)cc1F` (stereo not drawn) [CBK110164], the viability at 28.5 h, 10 µM was determined as 91.6%.

Turning to `CNS(=O)(=O)c1cc(C(=O)O)c(OC)cc1OC` [CBK110325], the viability at 28.5 h, 10 µM was 84.6%.

For `COC(=O)c1cc(C(=O)CSc2nc(N)cc(O)n2)ccc1O` [CBK110407], the viability at 28.5 h, 10 µM stood at 92.2%.

Turning to `COc1ccc(OC)c(C(=O)c2coc3ccc(OCC(=O)O)cc23)c1` [CBK111288], the viability at 28.5 h, 10 µM was 91.8%.

On to `O=C1/C(=C/c2c(NCCCn3ccnc3)nc3ccccn3c2=O)SC(=S)N1CC1CCCO1` (stereo not drawn) [CBK111310], for which the viability at 28.5 h, 10 µM was determined as 99.3%.

As for `CC1CCN(Cc2c(O)ccc3occ(C(=O)c4ccccc4)c23)CC1` [CBK111319], the viability at 28.5 h, 10 µM was found to be 89.8%.

Consider `O=C(O)CSc1ccccc1[N+](=O)[O-]` [CBK111324], for which the viability at 28.5 h, 10 µM turned out to be 86.8%.

`CCS(=O)(=O)Nc1cc(C(F)(F)F)ccc1Cl` [CBK111339]: the viability at 28.5 h, 10 µM came to 111%.

As to `CCS(=O)(=O)Nc1cc([N+](=O)[O-])ccc1OC` [CBK111343], the viability at 28.5 h, 10 µM was found to be 97%.

As for `CCS(=O)(=O)Nc1cc(Cl)ccc1C` [CBK111350], the viability at 28.5 h, 10 µM was determined as 79.1%.

`Cc1ccc(NC(C(N)=O)c2c(C)[nH]c(=O)[nH]c2=O)cc1` (stereo not drawn) [CBK111355]: the viability at 28.5 h, 10 µM was determined as 98.4%.

Turning to `Cc1ccc([N+](=O)[O-])cc1NS(=O)(=O)Cc1ccc(Cl)cc1` [CBK111359], the viability at 28.5 h, 10 µM is 71.8%.

Turning to `CN1CCN(Cc2c(O)ccc3occ(C(=O)c4ccccc4)c23)CC1` [CBK111438], the viability at 28.5 h, 10 µM amounted to 98.2%.

Regarding `COc1ccc(SCC(=O)O)cc1` [CBK111455], the viability at 28.5 h, 10 µM worked out at 93.7%.

For `CCc1nc2ccccc2n1CC(=O)O` [CBK111477], the viability at 28.5 h, 10 µM turned out to be 101%.

As to `O=C(O)CCn1c(C2CCCCC2)nc2ccccc21` [CBK111480], the viability at 28.5 h, 10 µM is 86.2%.

On to `CC(OC(=O)C1CCCCC1)c1nc2ccccc2[nH]1` (stereo not drawn) [CBK111483], for which the viability at 28.5 h, 10 µM came to 107%.

As for `Cc1[nH]c(=O)[nH]c(=O)c1Cc1cccc2ccccc12` [CBK111494], the viability at 28.5 h, 10 µM turned out to be 92.8%.

Consider `COCCn1nnnc1C(c1cc2c(C)ccc(C)c2[nH]c1=O)N1CCN(C(=O)c2ccco2)CC1` (stereo not drawn) [CBK111563], for which the viability at 28.5 h, 10 µM is 98.6%.

For the compound `O=C(NCc1cccnc1)c1ccc(-c2cccc(Cl)c2Cl)o1` [CBK112211], the viability at 28.5 h, 10 µM was found to be 102%.

Consider `CCCc1[nH]n(CCc2ccccc2)c(=O)c1Cc1c(Cl)cccc1Cl` [CBK112499], for which the viability at 28.5 h, 10 µM was determined as 99.8%.

Take `Nc1nc2ccccc2cc1-c1cccs1` [CBK112549]: the viability at 28.5 h, 10 µM is 100%.

Consider `O=C(Nc1ccc2c(c1)C1C=CCC1C(C(=O)O)N2)c1ccc(Cl)cc1Cl` (stereo not drawn) [CBK112584], for which the viability at 28.5 h, 10 µM worked out at 105%.

`CCOC(=O)C1N(C)C(=O)C(Cc2c(Cl)cccc2Cl)=C(C)N1C` (stereo not drawn) [CBK112643]: the viability at 28.5 h, 10 µM is 94.4%.

`COCCN1CCOC2(CCN(C(=O)c3ccc(C)cc3)CC2)C1c1ccccc1OC` (stereo not drawn) [CBK112657C]: the viability at 28.5 h, 10 µM stood at 100%.

Take `CSc1ccc(-n2ncc(-c3cccc(C(F)(F)F)c3)n2)cc1` [CBK112666]: the viability at 28.5 h, 10 µM came to 93.6%.

On to `N#Cc1ccc(-n2ncc(-c3cccc(C(F)(F)F)c3)n2)cc1` [CBK112675], for which the viability at 28.5 h, 10 µM amounted to 90.9%.

For the compound `Oc1ccc(-n2ncc(-c3cccc(C(F)(F)F)c3)n2)cc1` [CBK112677], the viability at 28.5 h, 10 µM amounted to 99.9%.

`COc1ccc(-n2ncc(-c3cccc(C(F)(F)F)c3)n2)cn1` [CBK112678]: the viability at 28.5 h, 10 µM amounted to 95.8%.

Regarding `OCc1ccc(-n2ncc(-c3ccc(C(F)(F)F)cc3)n2)cc1` [CBK112696], the viability at 28.5 h, 10 µM was 94.6%.

As to `CS(=O)(=O)c1ccc(-n2ncc(-c3ccc(C(F)(F)F)cc3)n2)cc1` [CBK112698], the viability at 28.5 h, 10 µM is 90%.

On to `O=C(O)c1cccc(-n2ncc(-c3ccccc3C(F)(F)F)n2)c1` [CBK112721], for which the viability at 28.5 h, 10 µM amounted to 98.1%.

Turning to `CSc1ccc(-n2ncc(-c3ccc(F)cc3F)n2)cc1` [CBK112728], the viability at 28.5 h, 10 µM turned out to be 91.3%.

For `OCc1ccc(-n2ncc(-c3ccc(F)cc3F)n2)cc1` [CBK112731], the viability at 28.5 h, 10 µM turned out to be 97.3%.

`Oc1ccc(-n2ncc(-c3ccc(F)cc3F)n2)cc1` [CBK112736]: the viability at 28.5 h, 10 µM came out at 98%.

Regarding `Fc1ccc(-c2cnn(-c3ccc(OC(F)(F)F)cc3)n2)c(F)c1` [CBK112740], the viability at 28.5 h, 10 µM amounted to 99.1%.

For the compound `COc1ccc(-c2cnn(-c3ccc(OC)cc3)n2)cc1` [CBK112745], the viability at 28.5 h, 10 µM came to 106%.

On to `COc1ccc(-c2cnn(-c3ccccc3CN(C)C)n2)cc1` [CBK112762], for which the viability at 28.5 h, 10 µM was determined as 106%.

For the compound `CSc1ccc(-n2ncc(-c3ccc(Cl)cc3)n2)cc1` [CBK112782], the viability at 28.5 h, 10 µM came out at 84%.

As for `COc1ccc(-n2ncc(-c3cccnc3)n2)cn1` [CBK112827], the viability at 28.5 h, 10 µM stood at 96.7%.

As for `Clc1ccc(-n2ncc(-c3ccsc3)n2)cc1Cl` [CBK112843], the viability at 28.5 h, 10 µM came out at 96.3%.

On to `CN(C)c1ccc(-n2ncc(-c3ccsc3)n2)cc1` [CBK112845], for which the viability at 28.5 h, 10 µM is 86.8%.

Take `NC(=O)c1ccc(-n2ncc(-c3ccsc3)n2)cc1` [CBK112858]: the viability at 28.5 h, 10 µM turned out to be 98.4%.

In the case of `O=C(O)c1cccc(-n2ncc(-c3ccsc3)n2)c1` [CBK112859], the viability at 28.5 h, 10 µM came to 100%.

Consider `c1cc(-c2cnn(-c3ccc4c(c3)CCO4)n2)cs1` [CBK112861], for which the viability at 28.5 h, 10 µM is 93.4%.

Take `COc1ccc(-n2ncc(CN(C)C)n2)cc1OC` [CBK112862]: the viability at 28.5 h, 10 µM came to 101%.

Turning to `CN(C)Cc1cnn(-c2ccc(Oc3ccccc3)cc2)n1` [CBK112865], the viability at 28.5 h, 10 µM turned out to be 100%.

`CCOC(=O)c1cccc(-n2ncc(CN(C)C)n2)c1` [CBK112866]: the viability at 28.5 h, 10 µM was 91.4%.

For `CN(C)Cc1ccccc1-n1ncc(CN2CCS(=O)(=O)CC2)n1` [CBK112877], the viability at 28.5 h, 10 µM is 107%.

Consider `CCOC(=O)c1cccc(-n2ncc(-c3ccc(F)cc3)n2)c1` [CBK112908], for which the viability at 28.5 h, 10 µM turned out to be 94.1%.

Regarding `OCc1ccc(-n2ncc(-c3ccc(Br)cc3F)n2)cc1` [CBK112920], the viability at 28.5 h, 10 µM turned out to be 96.6%.

For `CN(C)Cc1ccccc1-n1ncc(-c2ccc(Br)cc2F)n1` [CBK112924], the viability at 28.5 h, 10 µM was 90.9%.

As to `Fc1cc(Br)ccc1-c1cnn(-c2ccccc2)n1` [CBK112925], the viability at 28.5 h, 10 µM is 103%.

`COc1ccc(-n2cc(-c3cccc(C(F)(F)F)c3)nn2)cc1OC` [CBK112933]: the viability at 28.5 h, 10 µM amounted to 94.9%.

For `FC(F)(F)c1cccc(-c2cn(-c3ccsc3)nn2)c1` [CBK112937], the viability at 28.5 h, 10 µM amounted to 88.5%.

With `CC(=O)Nc1cccc(-n2cc(-c3cccc(C(F)(F)F)c3)nn2)c1` [CBK112938], the viability at 28.5 h, 10 µM turned out to be 91.2%.

For `O=C(O)c1cccc(-n2cc(-c3cccc(C(F)(F)F)c3)nn2)c1` [CBK112949], the viability at 28.5 h, 10 µM is 114%.

Turning to `CSc1ccc(-n2cc(-c3ccc(F)cc3F)nn2)cc1` [CBK112979], the viability at 28.5 h, 10 µM was 99.3%.

For the compound `OCc1ccc(-n2cc(-c3ccc(F)cc3F)nn2)cc1` [CBK112982], the viability at 28.5 h, 10 µM came to 89.2%.

Turning to `Fc1ccc(-c2cn(-c3cncnc3)nn2)c(F)c1` [CBK112989], the viability at 28.5 h, 10 µM amounted to 96.4%.
